Laboratory results published in ChEMBL document CHEMBL2396526, “Chromenylchalcones showing cytotoxicity on human colon cancer cell lines and in silico docking with aurora kinases” (Bioorg Med Chem, 2013).

Each molecule was assayed on HCT-116 (assay: Cytotoxicity against human HCT116 cells by MTT assay). Conditions: not given.
Type: functional, cell-based

SMILES | IC50
O=C(O[C@@H]1Cc2c(O)cc(O)cc2O[C@@H]1c1ccc(O)c(O)c1)c1cc(O)c(O)c(O)c1 [EPICATECHIN GALLATE] | 76 µM
O=C(O[C@H]1Cc2c(O)cc(O)cc2O[C@@H]1c1ccc(O)c(O)c1)c1cc(O)c(O)c(O)c1 [CATECHIN GALLATE] | 53 µM

These molecules were tested on HCT-116 (assay: Cytotoxicity against human HCT116 cells assessed as cell survival at 5 to 40 uM after 7 days by crystal violet staining assay). Conditions: HCT-116, 168 h.
Type: functional, cell-based

SMILES | IC50
COc1ccc2c(c1)C=C(C(=O)/C=C/c1cc(OC)c(OC)cc1OC)CO2 | 2.5 µM
COc1ccc2c(c1)C=C(C(=O)/C=C/c1ccccc1OC)CO2 | 1.62 µM
COc1cc(/C=C/C(=O)C2=Cc3cc(OC)ccc3OC2)cc(OC)c1 | 0.33 µM
COc1cc(OC)cc(C(=O)/C=C/C2=Cc3cc(Br)ccc3OC2)c1 | 3.4 µM
COc1cccc(C(=O)/C=C/C2=Cc3cc(Br)ccc3OC2)c1 | 4.56 µM
COc1ccc(C(=O)/C=C/C2=Cc3cc(OC)ccc3OC2)cc1 | 7.95 µM
COc1ccc(C(=O)/C=C/C2=Cc3ccc(OC)cc3OC2)cc1 | 10.5 µM
COc1cc(OC)cc(C(=O)/C=C/C2=Cc3cc(OC)ccc3OC2)c1 | 35.5 µM
COc1ccc2c(c1)C=C(/C=C/C(=O)C1=Cc3cc(OC)ccc3OC1)CO2 | 12.9 µM
COc1ccccc1C(=O)/C=C/C1=Cc2cc(Br)ccc2OC1 | 6.13 µM
COc1ccc2c(c1)C=C(C(=O)/C=C/C1=Cc3cccc(OC)c3OC1)CO2 | 7.19 µM
COc1ccc(/C=C/C(=O)C2=Cc3cc(OC)ccc3OC2)cc1 | 0.59 µM
COc1ccc2c(c1)C=C(/C=C/C(=O)c1ccccc1OC)CO2 | 1.04 µM
COc1ccc2c(c1)C=C(C(=O)/C=C/c1ccc(OC)cc1OC)CO2 | 3.97 µM
COc1ccc2c(c1)C=C(C(=O)/C=C/C1=Cc3ccc(OC)cc3OC1)CO2 | 18.8 µM
